Measured values as given in ChEMBL document CHEMBL1139991, “[1,3]Diazaheterofused isoindolol derivatives displaying anxiolytic-like effects on mice” (2007).

Tests used:
Mus musculus [1] = test: Anxiolytic effect in Albino ICR mouse assessed as time spent on open arms of elevated plus-maze test at 15 mg/ kg, ip; type: functional; settings: route intraperitoneal
Mus musculus [2] = test: Anxiolytic effect in Albino ICR mouse assessed as number of entries in open arms of elevated plus-maze test at 15 mg/kg, ip; type: functional; settings: route intraperitoneal

Work on `CSc1ccc(CC2(O)c3ccccc3C3=NCCN32)cc1` (configuration not stated) yielded an Activity (Mus musculus [1]) of 47.8% and an Activity (Mus musculus [2]) of 36.3%.

Work on `CSc1ccc(CC2(O)c3ccccc3C3=NCCCN32)cc1` (configuration not stated) yielded an Activity (Mus musculus [1]) of 73.8% and an Activity (Mus musculus [2]) of 66%.

Work on `C[S+]([O-])c1ccc(CC2(O)c3ccccc3C3=NCCCN32)cc1` (configuration not stated) yielded an Activity (Mus musculus [1]) of 16.3% and an Activity (Mus musculus [2]) of 27.6%.

In the case of `C[S+]([O-])c1ccc(CC2(O)c3ccccc3C3=NCCN32)cc1` (configuration not stated), the Activity (Mus musculus [1]) was 44% and the Activity (Mus musculus [2]) was 25.3%.

Compound `CS(=O)(=O)c1ccc(CC2(O)c3ccccc3C3=NCCN32)cc1` (configuration not stated) has an Activity (Mus musculus [1]) of 44% and an Activity (Mus musculus [2]) of 27.3%.

`COc1ccc(CC2(O)c3ccccc3C3=NCCCCN32)cc1` (configuration not stated) gave an Activity (Mus musculus [1]) of -9% and an Activity (Mus musculus [2]) of -24.4%.

`OC1(Cc2ccc(F)cc2)c2ccccc2C2=NCCN21` (configuration not stated) gave an Activity (Mus musculus [1]) of 22.9% and an Activity (Mus musculus [2]) of 5.5%.

Compound `OC1(Cc2ccc(F)cc2)c2ccccc2C2=NCCCN21` (configuration not stated) has an Activity (Mus musculus [1]) of 44.7% and an Activity (Mus musculus [2]) of 24.7%.

For `O=[N+]([O-])c1ccc(CC2(O)c3ccccc3C3=NCCCN32)cc1` (configuration not stated), the Activity (Mus musculus [1]) was 59% and the Activity (Mus musculus [2]) was 44.2%.

`OC1(Cc2ccc(Cl)cc2)c2ccccc2C2=NCCN21` (configuration not stated) was tested, and the Activity (Mus musculus [1]) was 62.6% and the Activity (Mus musculus [2]) was 41.9%.

Work on `OC1(Cc2ccc(Cl)cc2)c2ccccc2C2=NCCCN21` (configuration not stated) yielded an Activity (Mus musculus [1]) of 62.6% and an Activity (Mus musculus [2]) of 47.4%.

Compound `OC1(Cc2ccc(F)cc2)c2ccccc2C2=NCCCCN21` (configuration not stated) has an Activity (Mus musculus [1]) of 33.5% and an Activity (Mus musculus [2]) of 36.3%.

`OC1(Cc2ccc(Cl)cc2)c2ccccc2C2=NCCCCN21` (configuration not stated) was tested, and the Activity (Mus musculus [1]) was 42.7% and the Activity (Mus musculus [2]) was 41%.

Compound `CS(=O)(=O)c1ccc(CC2(O)c3ccccc3C3=NCCCN32)cc1` (configuration not stated) has an Activity (Mus musculus [1]) of 13.9% and an Activity (Mus musculus [2]) of -7.3%.

In the case of `O=[N+]([O-])c1ccc(CC2(O)c3ccccc3C3=NCCN32)cc1` (configuration not stated), the Activity (Mus musculus [1]) was 36.1% and the Activity (Mus musculus [2]) was 33.1%.

With `COc1cc(CC2(O)c3ccccc3C3=NCCCN32)cc(OC)c1OC` (configuration not stated) the Activity (Mus musculus [1]) was 44.2% and the Activity (Mus musculus [2]) was 46.8%.

`OC1(Cc2ccc3c(c2)OCO3)c2ccccc2C2=NCCCN21` (configuration not stated) was tested, and the Activity (Mus musculus [1]) was 48.7% and the Activity (Mus musculus [2]) was 45.9%.

`COc1ccc(CC2(O)c3ccccc3C3=NCCN32)cc1` (configuration not stated) was tested, and the Activity (Mus musculus [1]) was 48.9% and the Activity (Mus musculus [2]) was 34.6%.

`OC1(Cc2ccc3c(c2)OCO3)c2ccccc2C2=NCCN21` (configuration not stated) showed an Activity (Mus musculus [1]) of 51.3% and an Activity (Mus musculus [2]) of 44.8%.

`COc1ccc(CC2(O)c3ccccc3C3=NCCCN32)cc1` (configuration not stated) gave an Activity (Mus musculus [1]) of 51.8% and an Activity (Mus musculus [2]) of 60.2%.

With `COc1cc(CC2(O)c3ccccc3C3=NCCN32)cc(OC)c1OC` (configuration not stated) the Activity (Mus musculus [1]) was -7.9% and the Activity (Mus musculus [2]) was -16%.
